# Experiments:
# Assay type in all cases: in vivo, rat
# gastric acid secretion = test: Gastric secretion, pylorus-ligation method; details: rats, 5 μg/kg i.p., 3 h
# Protocol: Gastric juice was collected using the pylorus-ligation method. Briefly, rats were fasted for 24 hours, placed in restraint cages, and injected intraperitoneal with 5 μg/kg of ATL-146e. Thirty minutes after injection, pylorus ligation was performed. The stomach was removed 3 hours after pylorus ligation, and the gastric contents were collected. Following centrifugation the acid content of the supernatant was determined by titration with 0.01 mol NaOH to pH 7.0 using pH meter (f50 pH Meter; Beckman, Tokyo, Japan), and used to calculate gastric acid secretion in mEq/3 h.
# PGE2 = test: Mucosal content of PGE2 (radioimmunoassay)
# Protocol: A part of fundic mucosa (about 100 mg) was excised for determination of PGE2 synthesis. The samples were weighed, finely minced with scissors for 15 sec, then suspended in 1.0 ml of 10 mM sodium phosphate buffer (pH 7.4). The samples were then incubated in a shaking bath (37°) for 29 min followed by centrifugation (9000 g for 30 sec). The supernatant was frozen and subsequent determination of PGE2 was performed by radioimmunoassay using PGE2 [125I] RIA kit (Dupont/NEN, Boston, Mass., USA).
# IL-1β = test: Gastric mucosal concentration of IL-1β after aspirin (ELISA); details: rats, gastric mucosa, 3 h after aspirin
# Protocol: (§1) One hundred milligrams of scraped mucosa was homogenized for 30 sec with a polytron homogenizer (PT 1200, KInematica AG, Littau, Switzerland) in 1.0 ml of ice-cold potassium phosphate buffer (pH 7.4). Following centrifugation at 10,000 g for 10 minutes, aliquots of homogenate supernatants in PBS were obtained by centrifugation (10,000 g for 10 minutes). The total protein was measured by Bradford's method. The concentration of TNF-α and IL-1β in the supernatant of mucosal homogenates was determined by ELISA (R&D systems Inc., Minneapolis, Minn., USA) according to the manufacture's instruction. After color development, optimal density was measured with microplate reader. The concentration of TNF-α and IL-1β were expressed as pictogram/mg protein.
# myeloperoxidase (MPO) = test: Myeloperoxidase (MPO) concentration in the gastric mucosa after aspirin; details: rats, 3 h after aspirin, normal 2.8±0.2, vehicle 13.8±1.2, P<0.001
# Protocol: An assay of gastric mucosal myeloperoxidase concentration was applied to quantify the degree of neutrophil infiltration. Three hundred milligrams of scraped mucosa was homogenized for 30 sec with a polytron homogenizer (PT 1200, KInematica AG, Littau, Switzerland) in 1.0 ml of ice-cold 0.5% hexadecyliltrimethylammonium bromide in 50 mM phosphate buffer (pH 6.0). Hexadecyliltrimethylammonium bromide is used to negate the pseudoperoxidase activity of hemoglobin and to solubilize membrane-bound MPO. The homogenate was sonicated (U50 IKA Werke Grm1H and Co. KG, Staufen, Germany) for 10 seconds, freeze-thawed three times and centrifuged for 20 minutes at 18,000 g. The supernatant was taken for determination of the enzyme activity utilizing an ELISA kit (Bioxytech, Oxis International, Inc. Portland, Oreg., USA). The change in absorbance at 405 nm was measured with a spectrophotometer (Microplate reader model 3550, Bio-Rad, Hercules, Calif., USA). The concentration of myeloperoxidase was expressed as nanogram per mg protein measured using Bradford's method.
# TNF-α = test: Gastric mucosal concentration of TNF-α after aspirin (ELISA); details: rats, gastric mucosa, 3 h after aspirin
# Protocol: as §1
# [1] = tested on: Aspirin-induced gastric injury; test: Aspirin-induced gastric mucosal injury model (ulcer index); details: rats, 3 h after aspirin, control 29.8±7.7
# Protocol: Male Sprague-Dawley rats weighting 250-300 g were fed a standard laboratory diet and water ad libitum, and kept in cages in a temperature and humidity controlled room with a 12 hour dark-light cycle before and during the experiment. Prior to administration of aspirin, animals were deprived of food for 24 hours but had free access to water. This experimental protocol was approved by the Akita University Animal Care Committee. Aspirin-induced gastric injury was produced by intragastric administration of aspirin (200 mg/kg) and HCl (0.15 N, 8 ml/kg). ATL-146e (2.5 or 5 μg/kg, n=5 in each dose) or vehicle was injected intraperitoneally 30 minutes prior to aspirin administration. The animals were sacrificed by stunning and cervical dislocation 3 hours after aspirin administration and the stomach was removed. Gastric mucosal lesions were measured by two independent observers blinded to the treatment. The ulcer index was calculated as the sum of the lengths of all lesions.
SMILES,increase in gastric acid output (gastric acid secretion; P<0.05),"gastric acid output (gastric acid secretion; without compound 114, P<0.05) [mmolq/3 h]","effect on the reduction of gastric PGE2 concentration induced by aspirin (PGE2; rats, 5 μg/kg before aspirin 200 mg/kg, P>0.05 vs. aspirin alone)",reduction of the increase in IL1-β above control levels caused by aspirin (IL-1β; 2.5 μg/kg) [%],reduction of the increase in IL1-β above control levels caused by aspirin (IL-1β; 5 μg/kg) [%],MPO concentration in the gastric mucosa (myeloperoxidase (MPO); 2.5 μg/kg pretreatment) [μg/g protein],MPO concentration in the gastric mucosa (myeloperoxidase (MPO); 5 μg/kg pretreatment) [μg/g protein],reduction of the increase in TNF-α above control levels caused by aspirin (TNF-α; 2.5 μg/kg) [%],reduction of the increase in TNF-α above control levels caused by aspirin (TNF-α; 5 μg/kg) [%],"ulcer index (total length of gastric erosions) ([1]; 2.5 μg/kg i.p. 30 min before aspirin 200 mg/kg + HCl, P<0.05) [mm]","ulcer index (total length of gastric erosions) ([1]; 5.0 μg/kg i.p. 30 min before aspirin 200 mg/kg + HCl, P<0.01) [mm]","reduction of PGE2 concentration vs vehicle-treated rats (PGE2; aspirin 200 mg/kg alone, P<0.05) [%]","concentration of PGE2 in gastric mucosa (PGE2; rats, aspirin 200 mg/kg alone (group C), vehicle-treated 255.3±64.7) [ng/g]"
"CCNC(=O)C1OC(n2cnc3c(N)nc(C#CCC4CCC(C(=O)OC)CC4)nc32)C(O)C1O (stereo not shown) [ATL-146e, 4-{3-[6-Amino-9-(5-ethylcarbamoyl-3,4-dihydroxy-tetrahydro-furan-2-yl)-9H-purin-2-yl]-prop-2-ynyl}-cyclohexanecarboxylic acid methyl ester]",threefold,326,did not interfere with the reduction of gastric PGE2 concentration induced by aspirin,64.0,97.2,2.9±0.35,2.7±0.14,90.3,99.7,7.0±2.34,3.1±1.42,–,–
"CC(=O)Oc1ccccc1C(=O)O [aspirin, acetylsalicylic acid]",–,–,–,–,–,–,–,–,–,–,–,82.3,47.4 ± 5.6

# From patent US20080027022A1, “METHOD TO TREAT GASTRIC LESIONS” (priority 2006, published 2008)
